Patent publication US20050136118A1, “Distribution and preparation of germicidal compositions” (priority 2003, published 2005)
“And” between values parts separate entries of the source, which are not always exact repeats. Identical values can stand only once. Like-named read-outs stand apart in the source and are kept apart here.

Columns and labels:
Bacillus subtilis spores [1] = experiment: spore suspension test, killing of Bacillus subtilis spores; assay type: cell-based; settings: for Log Reduction/mL, 8 hr: 8 hr exposure; for Log Reduction/mL (3 hr, 20° C., pH = 8): 3 hr exposure; for Log Reduction/mL, 24 hr: 24 hr exposure; for Log Reduction/mL, 4 hr: 4 hr exposure
[2] = storage stability of phthalaldehyde solution (loss by Cannizzaro reaction); assay type: physicochemical; settings: about 11 weeks
Excerpt: Overall, the Cannizzaro reaction generally leads to loss of phthalaldehyde and a decrease in the germicidal efficacy of the solution. While a pH of from 6 to 10, or 7.5 to 9 generally enhances the efficacy of the phthalaldehyde-carbonate solution, the higher or alkaline pH also generally promotes the Cannizzaro reaction. […] However, about 14% of the phthalaldehyde may be lost if the same solution is stored for about 11 weeks at a pH of 9, at room temperature. Even more of the phthalaldehyde may be converted if the storage period is longer, if the temperature is higher, or if the pH is higher than 9.

[3] = cited from earlier work
Bacillus subtilis spores [4] = settings: cited from earlier work
[5] = system: Clostridium sporogenes spores; settings: cited from earlier work
Mycobacterium bovis BCG = settings: at least 0.25% by weight phthalaldehyde as sole active ingredient, 20° C.; cited from earlier work
[6] = pH range of 3 to 9; cited from earlier work
Bacillus subtilis spores [7] = settings: cited from earlier work; remark: listed apart in the source
spores = settings: 0.3% (w/v) NaHCO3 added; cited from earlier work
[8] = 0.25% phthalaldehyde as sole active ingredient, 20° C.
[9] = 20° C., composition and pH per label

Molecule: O=Cc1ccccc1C=O [0.3% OPA, phthalaldehyde]
- Log Reduction/mL, 2 hr (Bacillus subtilis spores [1]; 20° C., 2 hr exposure, composition and pH per label): 0.4 log/mL
- Log Reduction/mL, 6 hr (Bacillus subtilis spores [1]; 20° C., 6 hr exposure): 0.7 log/mL
- Log Reduction/mL, 8 hr (Bacillus subtilis spores [1]; 20° C.): ~0.6 log/mL
- Log Reduction/mL (3 hr, 20° C., pH = 8) (Bacillus subtilis spores [1]): 0.10 log/mL
- Log Reduction/mL (20° C., 4 hrs), [NaHCO3], 63 mM (Bacillus subtilis spores [1]; 4 hrs, labelled solution additionally contains 63 mM NaHCO3): 1.5 log/mL and 1.4 log/mL
- Log Reduction/mL (20° C., 4 hrs), [Phosphate], 63 mM (Bacillus subtilis spores [1]; 4 hrs, labelled solution additionally contains 63 mM phosphate): 0.7 log/mL
- Log Reduction/mL (20° C., 4 hrs), [NaF], 400 mM (Bacillus subtilis spores [1]; 4 hrs, labelled solution additionally contains 400 mM NaF): 4.7 log/mL
- Log Reduction/mL (20° C., 4 hrs), [NaF], 0 mM (Bacillus subtilis spores [1]; 4 hrs, no NaF added to the labelled solution): 0.4 log/mL
- Log Reduction/mL (20° C., 4 hrs), [NaHCO3], 0 mM (Bacillus subtilis spores [1]; 4 hrs, no NaHCO3): 0.5 log/mL
- Log Reduction/mL (20° C., 4 hrs), [Phosphate], 0 mM (Bacillus subtilis spores [1]; 4 hrs, no phosphate): 0.4 log/mL
- loss of phthalaldehyde on storage ([2]; pH 7 or lower, room temperature to about 40° C.): without a noticeable loss
- phthalaldehyde lost on storage ([2]; pH 9, room temperature): about 14%
- solubility in water [3]: about 5 % by weight
- time for sporicidal activity (Bacillus subtilis spores [4]; [8]): 24 h
- time to achieve sterilization (Bacillus subtilis spores [4]; 1.0% phthalaldehyde): 10 h
- time for sporicidal activity [5, 8]: 24 h
- time to achieve sterilization ([5]; 1.0% phthalaldehyde): 10 h
- time to kill all Mycobacterium bovis BCG in contact (high-level disinfection) (Mycobacterium bovis BCG): ≤ 10 min
- storage stability of single-component compositions [6]: excellent stability

Molecule: O=CCCCC=O [2.4% Glutaraldehyde, glutaraldehyde]
- Log Reduction/mL (3 hr, 20° C., pH = 8) (Bacillus subtilis spores [1]): <1.1 log/mL
- effect of salt concentration on sporicidal activity (Bacillus subtilis spores [7]; salt ranging from 0 to 1M): increasing with an increase in concentration of sodium bicarbonate or sodium chloride

Molecule: [F-].[Li+] [100 mM LiF, lithium fluoride]
- Log Reduction/mL, 24 hr (Bacillus subtilis spores [1]; 20° C.): 0.0 log/mL

Molecule: [F-].[K+] [1000 mM KF, potassium fluoride]
- Log Reduction/mL, 8 hr (Bacillus subtilis spores [1]; 20° C.): 0.0 log/mL
- Log Reduction/mL, 24 hr (Bacillus subtilis spores [1]; 20° C.): 0.1 log/mL
- Log Reduction/mL (3 hr, 20° C., pH = 8) (Bacillus subtilis spores [1]): 0.0 log/mL

Molecule: [I-].[K+] [1000 mM KI, potassium iodide]
- Log Reduction/mL (3 hr, 20° C., pH = 8) (Bacillus subtilis spores [1]): 0.0 log/mL

Molecule: [Br-].[Na+] [1000 mM NaBr, sodium bromide]
- Log Reduction/mL, 4 hr (Bacillus subtilis spores [1]; [9]): 0.0 log/mL
- Log Reduction/mL, 24 hr (Bacillus subtilis spores [1]; 20° C.): 0.1 log/mL

Molecule: [Cl-].[Na+] [1000 mM NaCl, sodium chloride]
- Log Reduction/mL, 24 hr (Bacillus subtilis spores [1]; 20° C.): 0.2 log/mL

Molecule: [F-].[Na+] [1000 mM NaF, sodium fluoride]
- Log Reduction/mL, 8 hr (Bacillus subtilis spores [1]; 20° C.): 0.0 log/mL

Molecule: [I-].[Na+] [1000 mM NaI, sodium iodide]
- Log Reduction/mL, 4 hr (Bacillus subtilis spores [1]; [9]): 0.0 log/mL
- Log Reduction/mL, 8 hr (Bacillus subtilis spores [1]; 20° C.): 0.0 log/mL
- Log Reduction/mL, 24 hr (Bacillus subtilis spores [1]; 20° C.): 0.1 log/mL

Molecule: CCCC=O [butyraldehyde]
- effect of addition of NaHCO3 on sporicidal action (spores): did not affect

Molecule: O=CC=O [glyoxal]
- effect of addition of NaHCO3 on sporicidal action (spores): did not affect

Molecule: OO [hydrogen peroxide]
- effect of salt concentration on sporicidal activity (Bacillus subtilis spores [7]; salt ranging from 0 to 1M): not affected

Molecule: CC(=O)OO [peracetic acid]
- effect of salt concentration on sporicidal activity (Bacillus subtilis spores [7]; salt ranging from 0 to 1M): not affected

Molecule: Oc1ccccc1 [phenol]
- effect of salt concentration on sporicidal activity (Bacillus subtilis spores [7]): not affected

Molecule: OCl [sodium hypochlorite]
- effect of salt concentration on sporicidal activity (Bacillus subtilis spores [7]; salt ranging from 0 to 1M): not affected

Molecule: cupric ascorbate
- effect of salt concentration on sporicidal activity (Bacillus subtilis spores [7]; salt ranging from 0 to 1M): not affected
